Our source for the inhibition and IC50 values is patent US7897602B2, “Indolinone compounds as kinase inhibitors” (Development Center for Biotechnology, priority 2009, dated 2011).

As a reminder, the inhibition is the relative decrease from the control value, in per cent. As a reminder, the IC50 is the concentration that gives 50% inhibition. Lower therefore signals greater potency.

Holding throughout (format): biochemical
One experiment addresses T1, Aurora B kinase (Homo sapiens, UniProt Q96GD4).
T1 construct: purchased Cell signaling
The experiment is described as follows: Aurora B kinase assay ([γ-33P]ATP, CHOCKtide substrate). The settings on record: for inhibition at 1 µM: 1.0 μM test compound. A digest of the protocol: (§1)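 Recombinant Aurora A (1 ng) or Aurora B (2.5 ng) incubated with test compound, CHOCKtide (1 μg) and [γ-33P]ATP/ATP at 10 μM (Aurora A) or 40 μM (Aurora B), 30 min at 33 °C. Stopped with phosphoric acid; filter-bound 33P counted; IC50 = half-maximal inhibition.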

The target of another experiment is T2, Aurora A kinase (Homo sapiens, UniProt O14965).
T2 construct: purchased Upstate
T2 sequence (O14965 1-403): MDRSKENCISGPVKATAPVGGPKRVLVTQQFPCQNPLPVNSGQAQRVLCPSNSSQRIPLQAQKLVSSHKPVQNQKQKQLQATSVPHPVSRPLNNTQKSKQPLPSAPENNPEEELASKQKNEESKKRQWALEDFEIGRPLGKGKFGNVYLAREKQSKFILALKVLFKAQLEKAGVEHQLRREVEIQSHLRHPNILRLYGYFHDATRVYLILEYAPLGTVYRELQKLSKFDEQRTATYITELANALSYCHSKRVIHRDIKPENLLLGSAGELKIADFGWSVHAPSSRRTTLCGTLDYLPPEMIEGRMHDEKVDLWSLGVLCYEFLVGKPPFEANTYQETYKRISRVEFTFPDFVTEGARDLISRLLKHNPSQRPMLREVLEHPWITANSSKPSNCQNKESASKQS
In words: Aurora A kinase assay ([γ-33P]ATP, CHOCKtide substrate). To be noted: for inhibition at 1 µM: 1.0 μM test compound. The gist of the method: as §1

The target of another experiment is T3, PDGFR-β kinase (Homo sapiens, UniProt P09619).
T3 construct: recombinant N-terminal 6×His-tagged PDGFR-β kinase domain construct expressed by baculovirus; 6xHis (N); made in house
The experiment is described as follows: PDGFR-β kinase assay (33P incorporation into Poly(Glu-Tyr)). To be noted: 500 nM test compound. A digest of the protocol: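 His-tagged PDGFR-β kinase domain (55 ng) with Poly(Glu-Tyr) 4:1, 30 μM ATP plus [33P]-γ-ATP, pH 7.0 MnCl2 buffer, and 500 nM compound for 30 min at 30° C. Filter-bound radioactivity counted; inhibition computed relative to DMSO control.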

Another experiment concerns the target T4, c-Met kinase (Homo sapiens, UniProt P08581).
T4 construct: recombinant N-terminal 6×His-tagged c-Met kinase domain construct expressed from baculovirus; 6xHis (N); made in house
In words: c-Met kinase assay (33P incorporation into Poly(Glu-Tyr)). To be noted: 500 nM test compound. The gist of the method:
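Recombinant N-terminal 6×His-tagged c-Met kinase domain (baculovirus-expressed, 5 ng) acted on Poly(Glu-Tyr) 4:1 with 100 μM ATP plus [33P]-γ-ATP in MOPS pH 7.0 buffer, 30 min at 30° C. Compound was at 500 nM. Filter-retained radioactivity was compared with the DMSO control to give percent inhibition.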

T4 sequence (P08581 1078-1345 limits assumed): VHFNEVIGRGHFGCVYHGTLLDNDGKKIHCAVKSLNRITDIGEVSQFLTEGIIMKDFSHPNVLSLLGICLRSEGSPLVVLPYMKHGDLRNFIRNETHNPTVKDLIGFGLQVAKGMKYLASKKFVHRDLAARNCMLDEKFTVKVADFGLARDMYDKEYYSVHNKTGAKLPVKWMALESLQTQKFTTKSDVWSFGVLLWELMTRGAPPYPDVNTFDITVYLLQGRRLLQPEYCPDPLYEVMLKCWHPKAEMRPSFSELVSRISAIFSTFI
T3 sequence (P09619 600-962 limits assumed): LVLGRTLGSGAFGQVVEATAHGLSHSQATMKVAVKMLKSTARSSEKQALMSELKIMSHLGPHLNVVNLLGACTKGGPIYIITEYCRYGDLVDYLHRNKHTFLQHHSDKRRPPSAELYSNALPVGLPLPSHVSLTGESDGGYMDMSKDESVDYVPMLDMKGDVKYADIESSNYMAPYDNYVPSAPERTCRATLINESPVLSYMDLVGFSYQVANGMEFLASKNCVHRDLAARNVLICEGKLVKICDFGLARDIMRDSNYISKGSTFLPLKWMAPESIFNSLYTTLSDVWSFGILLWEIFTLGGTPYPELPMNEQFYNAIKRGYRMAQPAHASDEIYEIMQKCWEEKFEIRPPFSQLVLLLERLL
T1 sequence (Q96GD4 whole entry): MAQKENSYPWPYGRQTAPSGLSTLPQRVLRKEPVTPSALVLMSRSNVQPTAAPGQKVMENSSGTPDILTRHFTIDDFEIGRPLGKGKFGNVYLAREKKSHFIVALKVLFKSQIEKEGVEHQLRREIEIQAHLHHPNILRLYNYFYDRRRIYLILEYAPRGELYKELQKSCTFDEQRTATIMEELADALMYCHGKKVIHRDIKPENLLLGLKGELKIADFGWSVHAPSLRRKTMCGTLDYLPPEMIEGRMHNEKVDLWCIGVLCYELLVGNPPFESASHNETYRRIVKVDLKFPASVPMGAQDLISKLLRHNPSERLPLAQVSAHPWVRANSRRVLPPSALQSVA

Regarding `CCOC(=O)CCc1c(/C=C2\C(=O)Nc3ccc(NCc4ccccc4)cc32)[nH]c2c1C(=O)CCC2` [DCB-70131, (Z)-ethyl 3-(2-((5-(benzylamino)-2-oxoindolin-3-ylidene)methyl)-4-oxo-4,5,6,7-tetrahydro-1H-indol-3-yl)propanoate], the inhibition at 1 µM at Aurora B kinase stood at 44.5%; against Aurora A kinase, 70.7%. Besides, the inhibition at 0.5 µM against PDGFR-β kinase was 40.8%; at c-Met kinase it was -2.1%.

Consider `CCOC(=O)CCc1c(/C=C2\C(=O)Nc3ccc(-c4ccc(F)cc4)cc32)[nH]c2c1C(=O)CCC2` [DCB-70108, (Z)-5-(4-fluorophenyl)-3-((3-(3-ethoxy-3-oxopropyl)-4-oxo-4,5,6,7-tetrahydro-1H-indol-2-yl)methylene)indolin-2-one], for which the inhibition at 1 µM amounted to 6.8% at Aurora B kinase and 7.5% against Aurora A kinase. The results for the inhibition at 0.5 µM against PDGFR-β kinase and at c-Met kinase were 4% and 30.1%, respectively.

Take `CCOC(=O)CCc1c(/C=C2\C(=O)Nc3ccc(NC(=O)c4ccc(F)cc4)cc32)[nH]c2c1C(=O)CCC2` [DCB-70074, (Z)-5-(4-fluorobenzamido)-3-((3-(3-ethoxy-3-oxopropyl)-4-oxo-4,5,6,7-tetrahydro-1H-indol-2-yl)methylene)indolin-2-one]: the inhibition at 1 µM was 15.1% at Aurora B kinase and 19.3% at Aurora A kinase. Besides, the inhibition at 0.5 µM against PDGFR-β kinase is 6.6%; at c-Met kinase, 21.5%.

Regarding `CCOC(=O)CCc1c(/C=C2\C(=O)Nc3ccc(NC(=O)Nc4ccc(Cl)c(C(F)(F)F)c4)cc32)[nH]c2c1C(=O)CCC2` [DCB-70137, (Z)-ethyl 3-(2-((5-(3-(4-chloro-3-(trifluoromethyl)phenyl)ureido)-2-oxoindolin-3-ylidene)methyl)-4-oxo-4,5,6,7-tetrahydro-1H-indol-3-yl)propanoate], the inhibition at 1 µM is -3.3% against Aurora B kinase and 12.6% against Aurora A kinase. The inhibition at 0.5 µM on PDGFR-β kinase and on c-Met kinase was 11.5% in each case.

With `CCOC(=O)CCc1c(C=C2C(=S)Nc3ccccc32)[nH]c2c1C(=O)CCC2` [DCB-70083, 3-((3-(3-ethoxy-3-oxopropyl)-4-oxo-4,5,6,7-tetrahydro-1H-indol-2-yl)methylene)indolin-2-thione], the figures for the inhibition at 1 µM against Aurora B kinase and at Aurora A kinase were 12.8% and 13.2%, respectively. Moreover, the inhibition at 0.5 µM against PDGFR-β kinase turned out to be 11.6%; against c-Met kinase, 29.8%.

For `CCOC(=O)CCc1c(/C=C2\C(=O)Nc3ccc(NS(=O)(=O)c4ccccc4)cc32)[nH]c2c1C(=O)CCCC2` [DCB-70146, (Z)-ethyl 3-(4-oxo-2-((2-oxo-5-(phenylsulfonamido)indolin-3-ylidene)methyl)-1,4,5,6,7,8-hexahydrocyclohepta[b]pyrrol-3-yl)propanoate], the values for the IC50 at Aurora B kinase and on Aurora A kinase were 439 nM and 86.3 nM, respectively. Further, the figures for the inhibition at 1 µM against Aurora B kinase and against Aurora A kinase were 75.1% and 81.3%, respectively. Besides, the values for the inhibition at 0.5 µM against PDGFR-β kinase and at c-Met kinase were 19.7% and 20.9%, respectively.

With `CCS(=O)(=O)Nc1ccc2c(c1)/C(=C/c1[nH]c3c(c1CCC(=O)O)C(=O)CCC3)C(=O)N2` [DCB-70119, (Z)-5-ethylsulfonamido-3-((3-carboxyethyl-4-oxo-4,5,6,7-tetrahydro-1H-indol-2-yl)methylene)indolin-2-one], the inhibition at 1 µM against Aurora B kinase worked out at 7.3%; on Aurora A kinase, 95.4%. The inhibition at 0.5 µM is 8.3% against PDGFR-β kinase and 31.8% at c-Met kinase.

For `CC(=O)Nc1ccc2c(c1)/C(=C/c1[nH]c3c(c1CCC(=O)O)C(=O)CCC3)C(=O)N2` [DCB-70104, (Z)-5-acetamido-3-((3-carboxyethyl-4-oxo-4,5,6,7-tetrahydro-1H-indol-2-yl)methylene)indolin-2-one], the values for the inhibition at 1 µM on Aurora B kinase and against Aurora A kinase were 12.8% and 83.6%, respectively. The molecule further yielded a 50% inhibitory concentration (IC50) at Aurora A kinase of 252 nM. Further, the inhibition at 0.5 µM is 27.2% at PDGFR-β kinase and 19.7% on c-Met kinase.

For `O=C(O)CCc1c(/C=C2\C(=O)Nc3ccc(F)cc32)[nH]c2c1C(=O)CCC2` [DCB-70055, (Z)-5-fluoro-3-((3-carboxyethyl-4-oxo-4,5,6,7-tetrahydro-1H-indol-2-yl)methylene)indolin-2-one], the values for the inhibition at 1 µM at Aurora B kinase and against Aurora A kinase were 11.6% and 79.8%, respectively. On Aurora A kinase, this molecule gave an IC50 of 178 nM. The inhibition at 0.5 µM was 83.5% against PDGFR-β kinase and 21.7% on c-Met kinase.

As for `CCOC(=O)CCc1c(/C=C2\C(=O)Nc3ccc(NS(=O)(=O)CC)cc32)[nH]c2c1C(=O)CCC2` [DCB-70118, (Z)-5-ethylsulfonamido-3-((3-(3-ethoxy-3-oxopropyl)-4-oxo-4,5,6,7-tetrahydro-1H-indol-2-yl)methylene)indolin-2-one], the inhibition at 1 µM against Aurora B kinase came to 3.2%; against Aurora A kinase, 81.2%. The inhibition at 0.5 µM against PDGFR-β kinase was 16.1%; at c-Met kinase, 50.9%.

Take `CCOC(=O)CCc1c(/C=C2\C(=O)Nc3ccccc32)[nH]c2c1C(=O)CCC2` [DCB-70049, (Z)-3-((3-(3-ethoxy-3-oxopropyl)-4-oxo-4,5,6,7-tetrahydro-1H-indol-2-yl)methylene)indolin-2-one]: the IC50 was 5920 nM on Aurora B kinase and 1780 nM at Aurora A kinase. Moreover, the results for the inhibition at 1 µM against Aurora B kinase and against Aurora A kinase were 2.3% and 32.6%, respectively. Besides, the figures for the inhibition at 0.5 µM against PDGFR-β kinase and at c-Met kinase were 54% and 26%, respectively.

For the molecule `CCS(=O)(=O)c1ccc2c(c1)/C(=C/c1[nH]c3c(c1CCC(=O)O)C(=O)CCC3)C(=O)N2` [DCB-70116, (Z)-5-ethylsulfonyl-3-((3-carboxyethyl-4-oxo-4,5,6,7-tetrahydro-1H-indol-2-yl)methylene)indolin-2-one], the inhibition at 1 µM at Aurora B kinase worked out at 7%; against Aurora A kinase it was 100%. Also, the figures for the inhibition at 0.5 µM against PDGFR-β kinase and against c-Met kinase were 11.2% and 38.1%, respectively.

Regarding `O=C(O)CCc1c(/C=C2\C(=O)Nc3ccc(NS(=O)(=O)c4ccccc4)cc32)[nH]c2c1C(=O)CCC2` [DCB-70103, (Z)-5-phenylsulfonamido-3-((3-carboxyethyl-4-oxo-4,5,6,7-tetrahydro-1H-indol-2-yl)methylene)indolin-2-one], the IC50 was found to be 156 nM against Aurora B kinase and 12.3 nM on Aurora A kinase. Further, the values for the inhibition at 1 µM against Aurora B kinase and against Aurora A kinase were 80.1% and 98.9%, respectively. Moreover, the inhibition at 0.5 µM worked out at 51% against PDGFR-β kinase and 37.9% at c-Met kinase.

In the case of `CCOC(=O)CCc1c(/C=C2\C(=O)Nc3cc(-c4ccc(O)c(O)c4)ccc32)[nH]c2c1C(=O)CCC2` [DCB-70077, (Z)-6-(3,4-dihydroxyphenyl)-3-((3-(3-ethoxy-3-oxopropyl)-4-oxo-4,5,6,7-tetrahydro-1H-indol-2-yl)methylene)indolin-2-one], the inhibition at 1 µM at Aurora B kinase was determined as 47.5%; against Aurora A kinase it was 57%. Also, the inhibition at 0.5 µM turned out to be 66.3% on PDGFR-β kinase and 4.1% on c-Met kinase.

Take `CCOC(=O)CCc1c(/C=C2\C(=O)Nc3ccc(NC(=O)c4ccccc4)cc32)[nH]c2c1C(=O)CCC2` [DCB-70096, (Z)-5-benazmido-3-((3-(3-ethoxy-3-oxopropyl)-4-oxo-4,5,6,7-tetrahydro-1H-indol-2-yl)methylene)indolin-2-one]: the inhibition at 1 µM came to 15.1% against Aurora B kinase and 38.6% against Aurora A kinase. For the same molecule, the inhibition at 0.5 µM was determined as 14.9% against PDGFR-β kinase and 8.9% against c-Met kinase.

For `O=C(O)CCc1c(/C=C2\C(=O)Nc3ccc([N+](=O)[O-])cc32)[nH]c2c1C(=O)CCC2` [DCB-70063, (Z)-5-nitro-3-((3-carboxyethyl-4-oxo-4,5,6,7-tetrahydro-1H-indol-2-yl)methylene)indolin-2-one], the inhibition at 1 µM came to 3.4% on Aurora B kinase and 56.6% at Aurora A kinase. At Aurora A kinase, this molecule returned an IC50 of 724 nM. For the same molecule, the inhibition at 0.5 µM was determined as 79.7% at PDGFR-β kinase and 19.9% against c-Met kinase.

Consider `O=C1Nc2ccc(F)cc2/C1=C/c1[nH]c2c(c1CCC(=O)N1CCOCC1)C(=O)CCC2` [DCB-70125, (Z)-5-fluoro-3-((3-(3-morpholino-3-oxopropyl)-4-oxo-4,5,6,7-tetrahydro-1H-indol-2-yl)methylene)indolin-2-one], for which the inhibition at 1 µM against Aurora B kinase is -0.1%; against Aurora A kinase, 39.7%. Further, the figures for the inhibition at 0.5 µM against PDGFR-β kinase and against c-Met kinase were 78.2% and 2.9%, respectively.
